Source: patent US20200330399A1, “COMBINATION THERAPY COMPRISING A POLYUNSATURATED KETONE AND A CORTICOSTEROID” (priority 2016, published 2020)

System: skin keratinocyte cell line HaCaT
Test: Resazurin assay of HaCaT keratinocyte cell proliferation and viability
Format: cell-based, human
Conditions: Example 2, 24 hours, Calcipotriol alone 10 μM, FIG. 2
Experimental: The spontaneously immortalized, nontumorigenic skin keratinocyte cell line HaCaT was maintained in DMEM supplemented with 5% (v/v) FBS, 0.3 mg/ml glutamine and 0.1 mg/ml gentamicin at 37° C. with 5% CO2 in a humidified atmosphere. Subculture using trypsin-EDTA was performed every 3-4 days with split ratio of 1:3-1:4 to ensure actively proliferating cells.
Cells were seeded in 96 well plates in fully supplemented medium at a density of 2500 cells per well. Following 72 hours of cultivation, the cells were starved of serum in 0.25% FBS/DMEM overnight to halt proliferation, synchronize the cells and to increase cell sensitivity to treatment. On day 4, the cells were treated with cPLA2a inhibitor Compound A and corticosteroid Betamethasone 17, 21-dipropionate (Sigma Aldrich # B1152) and left to incubate for […] in incubator at 37° C. with 5% CO2 in a humidified atmosphere before fluorescence was read at 544 nm excitation and 590 nm emission wavelength. […]
Cells were seeded in 96 well plates in fully supplemented medium at a density of 2500 cells per well. […] On day 5, resazurin was added according to the manufacturer's instruction (RnD Systems, UK) and left to incubate for 2 hour incubator at 37° C. with 5% CO2 in a humidified atmosphere before fluorescence was read at 544 nm excitation and 590 nm emission wavelength. […]

## C=C1/C(=C\C=C2/CCC[C@]3(C)[C@@H]([C@H](C)/C=C/[C@@H](O)C4CC4)CC[C@@H]23)C[C@@H](O)C[C@@H]1O [Calcipotriol, Calcipotriol hydrate]
  reduction of cell proliferation: 20%
